Measurements from ChEMBL document CHEMBL4043273, “Phenotypic Optimization of Urea-Thiophene Carboxamides To Yield Potent, Well Tolerated, and Orally Active Protective Agents against Aminoglycoside-Induced Hearing Loss” (J Med Chem, 2018).
Values after ≈ are worked out from the molar mass of the structure shown.

Tests used:
Danio rerio = organism: Danio rerio; test: Protection against neomycin-induced hair cell death in AB zebra fish larvae assessed as increase in hair cell survival preincubated for 1 hr followed by neomycin challenge for 1 hr by DASPEI staining-based epifluorescence dissecting microscopic method; format: functional
[1] = biological target: Voltage-gated inwardly rectifying potassium channel KCNH2 (Homo sapiens, UniProt Q12809)
Sequence of Voltage-gated inwardly rectifying potassium channel KCNH2 (Q12809 whole entry): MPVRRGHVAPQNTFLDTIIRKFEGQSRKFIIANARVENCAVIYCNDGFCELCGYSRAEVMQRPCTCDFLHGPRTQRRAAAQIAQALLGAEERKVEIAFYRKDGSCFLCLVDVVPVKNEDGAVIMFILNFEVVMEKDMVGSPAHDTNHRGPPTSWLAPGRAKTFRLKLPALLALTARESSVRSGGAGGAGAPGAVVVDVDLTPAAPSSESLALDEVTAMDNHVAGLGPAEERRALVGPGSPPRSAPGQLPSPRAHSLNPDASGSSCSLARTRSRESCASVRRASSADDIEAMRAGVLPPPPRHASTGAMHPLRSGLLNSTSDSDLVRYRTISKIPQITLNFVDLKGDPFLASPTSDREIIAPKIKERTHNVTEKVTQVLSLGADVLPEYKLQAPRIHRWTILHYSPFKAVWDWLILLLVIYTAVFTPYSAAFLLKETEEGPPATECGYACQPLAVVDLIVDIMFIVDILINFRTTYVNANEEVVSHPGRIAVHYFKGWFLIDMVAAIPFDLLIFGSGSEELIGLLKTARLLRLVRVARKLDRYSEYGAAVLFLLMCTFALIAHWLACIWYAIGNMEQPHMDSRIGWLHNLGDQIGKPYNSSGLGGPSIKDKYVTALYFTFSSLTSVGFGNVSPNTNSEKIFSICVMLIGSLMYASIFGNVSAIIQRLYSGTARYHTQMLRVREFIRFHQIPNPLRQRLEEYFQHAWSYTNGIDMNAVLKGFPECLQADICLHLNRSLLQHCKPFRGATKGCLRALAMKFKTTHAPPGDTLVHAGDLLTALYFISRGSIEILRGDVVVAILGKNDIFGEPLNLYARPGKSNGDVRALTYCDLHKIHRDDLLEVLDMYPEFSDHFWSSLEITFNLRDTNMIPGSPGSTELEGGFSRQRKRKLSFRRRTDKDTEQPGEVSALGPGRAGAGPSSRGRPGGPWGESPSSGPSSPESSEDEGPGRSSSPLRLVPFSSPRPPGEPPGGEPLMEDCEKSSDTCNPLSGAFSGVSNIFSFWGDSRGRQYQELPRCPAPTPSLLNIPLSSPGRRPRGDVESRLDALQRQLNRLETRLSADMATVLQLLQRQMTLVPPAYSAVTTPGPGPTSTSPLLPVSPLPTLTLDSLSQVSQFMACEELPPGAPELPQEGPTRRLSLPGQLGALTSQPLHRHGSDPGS
Description: Inhibition of human ERG expressed in HEK293 cells assessed as decrease in peak tail current amplitude by path clamp method

[2] = Aqueous solubility of compound at pH 7.4; format: physicochemical

SMILES | EC50 (Danio rerio) | other results
CCN1CCc2c(sc(NC(=O)Nc3ccc(Cl)cc3)c2C(=O)NCCN2CCOCC2)C1 | 9.38 µM | –
CC(C)(C)OC(=O)CCCN1CCc2c(sc(NC(=O)Nc3ccc(Cl)cc3)c2C(N)=O)C1 | 0.56 µM | –
CCN1CCc2c(sc(N)c2C(N)=O)C1 | > 25 µM | –
CC(C)C[N+]1(C)CCc2c(sc(NC(=O)Nc3ccc(Cl)cc3)c2C(N)=O)C1 (centres undefined) | 0.38 µM | –
CCN1CCc2c(sc(NC(=O)Nc3ccc(Cl)cc3)c2C(=O)NC)C1 | > 25 µM | –
CCN1CCc2c(sc(NC(=O)Nc3ccc(Cl)cc3)c2C(=O)OC)C1 | > 25 µM | –
CC[N+]1(CC)CCc2c(sc(NC(=O)Nc3ccc(Cl)cc3)c2C(N)=O)C1 | 0.45 µM | –
CCN1CCc2c(ccc(NC(=O)Nc3ccc(Cl)cc3)c2C(N)=O)C1 | > 25 µM | –
NC(=O)c1c(NC(=O)Nc2ccc(Cl)cc2)sc2c1CC[N+]1(CCOCC1)C2 | 1.21 µM | IC50 [1]: 12.4 µM
CCN1CCc2c(sc(NC(=O)NCc3cccc(Cl)c3)c2C(N)=O)C1 | > 25 µM | –
CCN1CCc2c(sc(NC(=O)Nc3ccc(Cl)cc3)c2C(=O)N2CCOCC2)C1 | > 25 µM | –
CCN1CCc2c(sc(NC(=O)[C@@H]3CCCN3)c2C(N)=O)C1 | > 25 µM | –
CC[N+]1(C)CCc2c(sc(NC(=O)Nc3ccc(Cl)cc3)c2C(N)=O)C1 (centres undefined) | 1.96 µM | IC50 [1]: 3.38 µM
CCCN1CCc2c(sc(NC(=O)Nc3ccc(Cl)cc3)c2C(N)=O)C1 | 3.5 µM | –
CC(C)(C)OC(=O)CCC[N+]1(C)CCc2c(sc(NC(=O)Nc3ccc(Cl)cc3)c2C(N)=O)C1 (centres undefined) | 0.25 µM | –
NC(=O)c1c(NC(=O)Nc2ccc(Cl)cc2)sc2c1CCN(C1CCOCC1)C2 | 2.83 µM | –
CC(C)(C)OC(=O)CCCC[N+]1(C)CCc2c(sc(NC(=O)Nc3ccc(Cl)cc3)c2C(N)=O)C1 (centres undefined) | 0.14 µM | –
NC(=O)c1c(NC(=O)Nc2ccc(Cl)cc2)sc2c1CCN(CC1CCCCC1)C2 | 1.89 µM | –
Cc1c(CN2CCOCC2)sc(NC(=O)Nc2ccc(Cl)cc2)c1C(N)=O | 6.92 µM | –
CN1CCc2c(sc(NC(=O)Nc3ccc(Cl)cc3)c2C(N)=O)C1 | 4.7 µM | –
NC(=O)c1c(NC(=O)Nc2ccc(Cl)cc2)sc2c1C1CCC(C2)N1 (racemic) | 0.11 µM | –
CCN1CCc2c(sc(NC(=O)Nc3ccc(Cl)cc3)c2C(=O)O)C1 | > 25 µM | –
CN1[C@@H]2CC[C@H]1c1sc(NC(=O)Nc3ccc(Cl)cc3)c(C(N)=O)c1C2 (single isomer, unassigned) | 7.21 µM | –
CCN1CCc2c(sc(NC(=O)Nc3ccc(Cl)cc3)c2C(=O)c2nc(C)no2)C1 | > 25 µM | –

SMILES | EC50 (Danio rerio) | other results
O=C(Cc1ccc(Cl)cc1)Nc1nc(C(=O)N2CCCCC2)cs1 | > 25 µM | –
CCN1Cc2sc(NC(=O)Nc3ccc(Cl)cc3)c(C(N)=O)c2C1 | 4.34 µM | –
CCN1CCc2c(sc(NC(=O)Nc3cccc(C)c3)c2C(N)=O)C1 | 13 µM | –
NC(=O)c1c(NC(=O)Nc2ccc(Cl)cc2)sc2c1[C@@H]1CC[C@H](C2)N1 | 0.03 µM | –
CC(C)[N+]1(C)CCc2c(sc(NC(=O)Nc3ccc(Cl)cc3)c2C(N)=O)C1 (centres undefined) | 0.96 µM | –
CCN1CCc2c(sc(NC(=O)Nc3ccc(Cl)cc3)c2C(=O)c2nnco2)C1 | > 25 µM | –
CCN1CCc2c(sc(NC(=O)Nc3ccc(Br)cc3)c2C(N)=O)C1 | 3.13 µM | –
CC(C)(C)OC(=O)CCCCCN1CCc2c(sc(NC(=O)Nc3ccc(Cl)cc3)c2C(N)=O)C1 | 0.62 µM | –
CN1[C@H]2CC[C@@H]1c1sc(NC(=O)Nc3ccc(Cl)cc3)c(C(N)=O)c1C2 (single isomer, unassigned) | 0.27 µM | –
C[N+]1(CC2CC2)CCc2c(sc(NC(=O)Nc3ccc(Cl)cc3)c2C(N)=O)C1 (centres undefined) | 0.36 µM | –
CCN1CCc2c(sc(NC(=O)Nc3cscc3C(=O)OC)c2C(N)=O)C1 | > 25 µM | –
CCN1CCc2c(sc(NC(=O)Nc3ccc4ccccc4c3)c2C(N)=O)C1 | 1.78 µM | –
NC(=O)c1c(NC(=O)Nc2ccc(Cl)cc2)sc2c1CCN(CC1CCCC1)C2 | 1.83 µM | –
CCN1CCc2c(sc(NC(=O)Nc3ccc(-c4ccccc4)cc3)c2C(N)=O)C1 | 3.39 µM | –
CCN1CCc2c(sc(NC(=O)Nc3ccc(C(F)(F)F)cc3)c2C(N)=O)C1 | 2.91 µM | –
NC(=O)c1c(NC(=O)Nc2ccc(Cl)cc2)sc2c1C[C@H]1CC[C@@H]2N1 | 3.92 µM | –
NC(=O)c1c(NC(=O)Nc2ccc(Cl)cc2)sc2c1[C@H]1CC[C@@H](C2)N1 | 5 µM | –
CC(C)(C)OC(=O)CCCCC[N+]1(C)CCc2c(sc(NC(=O)Nc3ccc(Cl)cc3)c2C(N)=O)C1 (centres undefined) | 0.11 µM | –
CCN1CCc2c(sc(NC(=O)CN3CCCCC3)c2C(N)=O)C1 | > 25 µM | –
CC(C)(C)OC(=O)CCN1CCc2c(sc(NC(=O)Nc3ccc(Cl)cc3)c2C(N)=O)C1 | 1.1 µM | –
CCN1CCc2sc(NC(=O)Nc3ccc(Cl)cc3)c(C(N)=O)c2CC1 | 5.8 µM | –
CCC(O)c1cc2c(cc1NC(=O)Nc1ccc(Cl)cc1)OCCO2 (centres undefined) | > 25 µM | –
NC(=O)c1c(NC(=O)Nc2ccc(Cl)cc2)sc2c1CCN(CCCNC(=O)CCc1cccc3ccccc13)C2 | 0.11 µM | –
CC1CCc2nc(NC(=O)Nc3ccc(Cl)cc3)sc2C1 (centres undefined) | > 25 µM | –

SMILES | EC50 (Danio rerio) | other results
NC(=O)c1c(NC(=O)Nc2ccc(Cl)cc2)sc2c1CCNC2 | 3.26 µM | –
NC(=O)c1c(NC(=O)Nc2ccc(Cl)cc2)sc2c1C[C@@H]1CC[C@H]2N1 | 0.27 µM | –
CCN1CCc2c(sc(NC(=O)Nc3ccc(Cl)cc3)c2C#N)C1 | > 25 µM | –
CC1(C)Cc2c(sc(NC(=O)Nc3ccc(Cl)cc3)c2C(N)=O)C(C)(C)N1 | – | solubility ([2]; buffer): 83 µM (≈ 33.8 µg/mL)
CCN1CCc2c(sc(NC(=O)Nc3ccccc3)c2C(N)=O)C1 | > 25 µM | –
NC(=O)c1c(NC(=O)Nc2ccc(Cl)cc2)sc2c1CCCC2 | > 25 µM | –
NC(=O)c1c(NC(=O)Nc2ccc(Cl)cc2)sc2c1CCN(CC1CCC1)C2 | 1.36 µM | –
COCCC[N+]1(C)CCc2c(sc(NC(=O)Nc3ccc(Cl)cc3)c2C(N)=O)C1 (centres undefined) | 0.48 µM | –
CCCCc1nnc(NC(=O)Nc2ccc(Cl)cc2)s1 | > 25 µM | –
NC(=O)c1c(NC(=O)Nc2ccc(Cl)cc2)sc2c1CC1CCC2N1 (centres undefined) | 0.21 µM | –
CN1[C@@H]2CC[C@H]1c1c(sc(NC(=O)Nc3ccc(Cl)cc3)c1C(N)=O)C2 (single isomer, unassigned) | – | solubility ([2]; aqueous medium, read-out: solubility): 76 µM (≈ 29.7 µg/mL)
CCC1CCc2c(sc(NC(=O)Nc3ccc(Cl)cc3)c2C(N)=O)C1 (centres undefined) | > 25 µM | –
CCN1CCc2c(sc(NC(=O)Nc3ccc(I)cc3)c2C(N)=O)C1 | 1.62 µM | –
CC(C)(C)OC(=O)CCCCN1CCc2c(sc(NC(=O)Nc3ccc(Cl)cc3)c2C(N)=O)C1 | 0.71 µM | –
C[N+]1(CC2CCC2)CCc2c(sc(NC(=O)Nc3ccc(Cl)cc3)c2C(N)=O)C1 (centres undefined) | 0.21 µM | –
CC(C)(C)OC(=O)N1CCc2c(sc(NC(=O)Nc3ccc(Cl)cc3)c2C(N)=O)C1 | > 25 µM | –
CN1C2CCC1c1sc(NC(=O)Nc3ccc(Cl)cc3)c(C(N)=O)c1C2 (centres undefined) | 0.62 µM | –
C[N+]1(C2CCc3c(sc(NC(=O)Nc4ccc(Cl)cc4)c3C(N)=O)C2)CCC1 (centres undefined) | 3.92 µM | –
NC(=O)c1c(NC(=O)Nc2ccc(Cl)cc2)sc2c1CCN(CCCNC(=O)CCc1cccnc1)C2 | 0.47 µM | –
CCN1CCc2c(sc(NC(=O)NCC3CCCO3)c2C(N)=O)C1 (centres undefined) | > 25 µM | –
CCN1CCc2c(sc(NC(=O)Nc3cccc(C#N)c3)c2C(N)=O)C1 | 10.3 µM | –
CCN1CCc2c(sc(NC(=O)c3ccccc3)c2C(N)=O)C1 | > 25 µM | –
CCN1CCc2c(sc(NC(=O)C3(c4ccc(Cl)cc4)CC3)c2C(N)=O)C1 | > 25 µM | –
C[N+](C)(C)C1CCc2c(sc(NC(=O)Nc3ccc(Cl)cc3)c2C(N)=O)C1 (centres undefined) | 5.87 µM | –

SMILES | EC50 (Danio rerio) | other results
CCN1CCc2c(sc(NC(=O)Nc3ccc(Cl)cc3)c2C(=O)NCCO)C1 | 9.4 µM | –
CCN1CCc2c(sc(NC(=O)Nc3ccc(Cl)cc3)c2C(N)=O)C1 | – | solubility ([2]; buffer): 85 µM (≈ 32.2 µg/mL)
CCN1CCc2c(sc(NC=O)c2C(N)=O)C1 | > 25 µM | –
CCN1CCc2c(sc(NC(=O)Nc3ccc(Cl)cc3Cl)c2C(N)=O)C1 | 11.5 µM | –
CCN1CCCc2c(sc(NC(=O)Nc3ccc(Cl)cc3)c2C(N)=O)C1 | 3.98 µM | –
CCN1CCc2c(sc(NC(=S)Nc3ccc(Cl)cc3)c2C(N)=O)C1 | 6.57 µM | –
CC(C)N1CCc2c(sc(NC(=O)Nc3ccc(Cl)cc3)c2C(N)=O)C1 | 1.49 µM | –
NC(=O)c1c(NC(=O)Nc2ccc(Cl)cc2)sc2c1CCN(CC1CC1)C2 | 1.22 µM | –
CCN1CCc2c(sc(NC(=O)NCCN3CCOCC3)c2C(N)=O)C1 | > 25 µM | –
COCCCN1CCc2c(sc(NC(=O)Nc3ccc(Cl)cc3)c2C(N)=O)C1 | 2.4 µM | –
CCN1CCc2sc(NC(=O)Nc3ccc(Cl)cc3)c(C(N)=O)c2C1 | 4.61 µM | –
CC(C)(C)CN1CCc2c(sc(NC(=O)Nc3ccc(Cl)cc3)c2C(N)=O)C1 | 5.56 µM | –
C[N+]1(CC2CCCC2)CCc2c(sc(NC(=O)Nc3ccc(Cl)cc3)c2C(N)=O)C1 (centres undefined) | 0.2 µM | –
CC(C)(C)C[N+]1(C)CCc2c(sc(NC(=O)Nc3ccc(Cl)cc3)c2C(N)=O)C1 (centres undefined) | 0.29 µM | –
CCN1CCc2c(sc(NC(=O)Nc3ccc(Cl)cc3)c2C(=O)NC2COC2)C1 | > 25 µM | –
CC(C)(C)OC(=O)CN1CCc2c(sc(NC(=O)Nc3ccc(Cl)cc3)c2C(N)=O)C1 | > 25 µM | –
CCN1CCc2c(sc(NC(=O)Nc3cccc(Cl)c3Cl)c2C(N)=O)C1 | 17.4 µM | –
CCC(C)(C)C1CCc2c(sc(NC(=O)Nc3ccc(Cl)cc3)c2C(N)=O)C1 (centres undefined) | > 25 µM | –
CN1C2CCC1c1c(sc(NC(=O)Nc3ccc(Cl)cc3)c1C(N)=O)C2 (racemic) | 0.36 µM | –
CN1[C@H]2CC[C@@H]1c1c(sc(NC(=O)Nc3ccc(Cl)cc3)c1C(N)=O)C2 | > 2.25 µM | –
CC(C)CN1CCc2c(sc(NC(=O)Nc3ccc(Cl)cc3)c2C(N)=O)C1 | 4.51 µM | –
C[N+]1(CC2CCCCC2)CCc2c(sc(NC(=O)Nc3ccc(Cl)cc3)c2C(N)=O)C1 (centres undefined) | 0.1 µM | –
NC(=O)c1c(NC(=O)Nc2ccc(Cl)cc2)sc2c1CC[N+]1(CCCC1)C2 | 0.41 µM | IC50 [1]: 3.51 µM
CCN1CCc2c(sc(NC(=O)C3(C(=O)Nc4ccc(Cl)cc4)CC3)c2C(N)=O)C1 | > 25 µM | –
